Results from patent EP0844879B1, “PHARMACEUTICAL CO[…] D[…] IN […] IMMUNE RESPONSE” (LA[…] SPINDLER, priority 1995, dated 1996).
Entries after “also recorded” stand apart in the source; their conditions may differ.

Test system: vaccin monovalent de la grippe (vaccin NIB16, souche A) (HA)
Assay: Immunisation of mice with monovalent influenza vaccine, steroid as adjuvant; total anti-HA IgG in serum by enzyme immunoassay
Assay type: in vivo, souris BALB/C
Settings: aged mice compared with young mice; steroid given with HA
Procedure: Un protocole d'immunisation contre le vaccin monovalent de la grippe (vaccin NIB16, souche A) (HA), est utilisé pour tester l'effet adjuvant du dérivé 3β-palmitoyl de la 7αOH-DHEA mis en solution à 10 mg/ml dans le DMSO.
Trois lots de 5 souris BALB/C âgées de 6 semaines (jeunes) et trois lots de 5 souris BALB/C âgées de 90 semaines (âgées) subissent le premier jour une injection sous-cutanée de 0,5 ml de sérum physiologique contenant : • soit 8 µg de HA + 1,8 µmole (0,78 mg/kg) de 3β-palmitoyl-7αOH-DHEA (lot 1) • soit 8 µg de HA + 1,8 µmole (0,56 mg/kg) de 7αOH-DHEA (lot 2) • soit 8 µg de HA (lot 3) Après 28 jours, chaque souris de chaque lot subit un rappel, les injections décrites étant répétées pour chaque lot. Après 38 jours, chaque souris de chaque lot est sacrifiée et le sang prélevé. Les IgG totales anti-HA sont mesurées dans chaque sérum par une méthode immunoenzymatique. […] Tableau 1

Structure (SMILES) | réponse immunitaire des souris âgées (result in words)
C[C@]12CC[C@H](O)CC1=C[C@@H](O)[C@@H]1[C@@H]2CC[C@]2(C)C(=O)CC[C@@H]12 [7αOH-DHEA, reference compound] | cette réponse n'est pas obtenue
CCCCCCCCCCCCCCCC(=O)O[C@H]1CC[C@@]2(C)C(=C[C@@H](O)[C@@H]3[C@@H]2CC[C@]2(C)C(=O)CC[C@@H]32)C1 [3β-palmitoyl-7αOH-DHEA] | rétablit la réponse immunitaire des souris âgées à un niveau proche de celui des souris jeunes; also recorded: a un effet sur la réponse immunitaire des souris âgées comparable à celui obtenu chez les souris jeunes
